In patent publication US10968222B2, “2-azabicyclo hexane JAK inhibitor compound” (THERAVANCE BIOPHARMA R&D IP, LLC, priority 2018, dated 2021):

Tests used:
CSF1R = target: T1, CSF1R (Homo sapiens, UniProt P07333); assay: Kinome screen, CSF1R; assay type: binding; conditions: screened at 1 μM
T1 construct: made in house; host or cells: E. coli BL21-derived host (T7 phage) or HEK-293 cells
Protocol: (§1) Compounds 1 and C-1 were screened against other kinases to evaluate their selectivity profile.
(§2) Kinase-tagged T7 phage strains were grown in parallel in 24-well blocks in an E. coli host derived from the BL21 strain. E. coli were grown to log-phase and infected with T7 phage from a frozen stock (multiplicity of infection=0.4) and incubated with shaking at 32° C. until lysis (90-150 minutes). The lysates were centrifuged (6,000×g) and filtered (0.2 μm) to remove cell debris. The remaining kinases were produced in HEK-293 cells and subsequently tagged with DNA for qPCR detection.
(§3) Streptavidin-coated magnetic beads were treated with biotinylated small molecule ligands for 30 minutes at room temperature to generate affinity resins for kinase assays. The liganded beads were blocked with excess biotin and washed with blocking buffer (SeaBlock (Pierce), 1% BSA, 0.05% Tween 20, 1 mM DTT) to remove unbound ligand and to reduce non-specific phage binding. Binding reactions were assembled by combining kinases, liganded affinity beads, and test compounds in 1× binding buffer (20% SeaBlock, 0.17×PBS, 0.05% Tween 20, 6 mM DTT). Test compounds were prepared as 40× stocks in 100% DMSO and directly diluted into the assay. All reactions were performed in polypropylene 384-well plates in a final volume of 0.04 ml. […] The kinase concentration in the eluates was measured by qPCR. […]

SLK = target: T2, SLK (Homo sapiens, UniProt Q9H2G2); assay: Kinome screen, SLK; assay type: binding; conditions: screened at 1 μM
T2 construct: made in house; host or cells: E. coli BL21-derived host (T7 phage) or HEK-293 cells
Protocol: as §1, §2, §3

[1] = test system: BEAS-2B human lung epithelial cells; assay: CellTiter-Glo cell viability/cytotoxicity assay; assay type: cell-based; conditions: BEAS-2B cells; 48 h; 15% inhibition threshold
Protocol: A CellTiter-Glo luminescent cell viability/cytotoxicity assay was carried out in BEAS-2B human lung epithelial cells (ATCC) under the normal growth condition.
Cells were grown at 37° C. in a 5% CO2 humidified incubator in 50% DMEM/50% F-12 medium (Life Technologies) supplemented with 10% FBS (Hyclone), 100 U/mL penicillin, 100 μg/mL streptomycin (Life Technologies), and 2 mM GlutaMAX (Life Technologies). On day 1 of the assay, cells were seeded at a 500 cells/well density in white 384-well tissue culture plates (Corning) with 25 μL medium, and were allowed to adhere overnight in the incubator. On day 2 of the assay, 5 μL of medium containing dose-responses of test compounds was added, and incubated at 37° C. for 48 h. 30 μL of CellTiter-Glo detection solution (Promega) was subsequently added, mixed on an orbital shaker for 5 min, and incubated for additional 10 min before being read on the EnVision reader. Luminescence signals were recorded and percent DMSO control values were calculated.
For dose-response analysis, percent DMSO control data were plotted vs. compound concentrations to derive dose-response curves by line connecting each data point. The concentration at which each curve crosses the 15% inhibition threshold is defined as CC15.

VEGFR2 = target: T3, VEGFR2 (Homo sapiens, UniProt P35968); assay: Kinome screen, VEGFR2; assay type: binding; conditions: screened at 1 μM
T3 construct: made in house; host or cells: E. coli BL21-derived host (T7 phage) or HEK-293 cells
Protocol: as §1, §2, §3

[2] = test system: IL-6 trans-signaling (IL6+sIL6Rα)-induced STAT3 phosphorylation in HRMECs; assay: Inhibition of IL-6 trans-signaling stimulated p-STAT3 in primary human retinal microvascular endothelial cells; assay type: cell-based; conditions: HRMEC, 500 pM IL-6, 5 nM sIL6Rα, three independent experiments, read-out: pIC50, inhibition of IL-6 trans-signaling stimulated p-STAT3 (converted)
Protocol: The cellular potency of the test compound toward inhibition of IL-6 trans-signaling (IL6+sIL6Rα)-induced STAT3 phosphorylation was measured in primary human retinal microvascular endothelial cells (HRMECs). IL-6 trans-signaling is mediated by IL-6 receptor beta (gp130), which is intracellularly coupled to JAK enzymes. Following gp130 engagement and dimerization, JAKs are activated and directly phosphorylate STAT3. Thus, this assay provides a measure of JAK cellular potency. HRMECs (Cell Systems, Kirkland Wash.) were plated in sterile, tissue culture treated, flat-bottom 96-well assay plates coated with Attachment Factor™ (Cell Systems, Kirkland Wash.) at a density of 1×10^4 cells per well. HRMEC cultures were grown for 3 days at 37° C., 95% humidity, 5% CO2 in culture media supplemented with 10% fetal bovine serum, Culture Boost™ growth factors, and BacOff® antibiotic (Cell Systems, Kirkland Wash.). […] To determine the inhibitory potency of the test compound, levels of p-STAT3 were measured using AlphaLISA® SureFire® Ultra™ p-STAT3 (Tyr705) assay kit (PerkinElmer) according to manufacturer's instructions. IC50 values were determined from inhibition curves of % p-STAT3 Alpha Signal vs test compound concentration (curve fitting conducted with GraphPad Prism 7.0). Data are expressed as pIC50 (negative log10(test compound concentration)).

EPHB6 = target: T4, EPHB6 (Homo sapiens, UniProt O15197); assay: Kinome screen, EPHB6; assay type: binding; conditions: screened at 1 μM
T4 construct: made in house; host or cells: E. coli BL21-derived host (T7 phage) or HEK-293 cells
Protocol: as §1, §2, §3

SRC = target: T5, SRC (Homo sapiens, UniProt P12931); assay: Kinome screen, SRC; assay type: binding; conditions: screened at 1 μM
T5 construct: made in house; host or cells: E. coli BL21-derived host (T7 phage) or HEK-293 cells
Protocol: as §1, §2, §3

PLK4 = target: T6, PLK4 (Homo sapiens, UniProt O00444); assay: Kinome screen, PLK4; assay type: binding; conditions: screened at 1 μM
T6 construct: made in house; host or cells: E. coli BL21-derived host (T7 phage) or HEK-293 cells
Protocol: as §1, §2, §3

CSNK1D = target: T7, CSNK1D (Homo sapiens, UniProt P48730); assay: Kinome screen, CSNK1D; assay type: binding; conditions: screened at 1 μM
T7 construct: made in house; host or cells: E. coli BL21-derived host (T7 phage) or HEK-293 cells
Protocol: as §1, §2, §3

T5 sequence (P12931 whole entry): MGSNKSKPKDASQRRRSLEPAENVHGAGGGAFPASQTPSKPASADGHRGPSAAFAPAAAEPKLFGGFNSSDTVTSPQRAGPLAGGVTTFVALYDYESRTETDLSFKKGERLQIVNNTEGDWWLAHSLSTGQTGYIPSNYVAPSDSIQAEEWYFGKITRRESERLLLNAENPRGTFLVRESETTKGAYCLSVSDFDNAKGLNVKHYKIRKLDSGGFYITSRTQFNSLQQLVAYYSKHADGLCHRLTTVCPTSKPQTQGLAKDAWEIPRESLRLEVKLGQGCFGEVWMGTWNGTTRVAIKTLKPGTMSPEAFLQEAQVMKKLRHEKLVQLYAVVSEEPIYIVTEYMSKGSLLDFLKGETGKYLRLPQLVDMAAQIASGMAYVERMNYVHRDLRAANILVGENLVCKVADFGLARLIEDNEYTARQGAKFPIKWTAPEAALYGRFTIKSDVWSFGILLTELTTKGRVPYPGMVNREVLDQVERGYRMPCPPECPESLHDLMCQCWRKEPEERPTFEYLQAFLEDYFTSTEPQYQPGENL
T4 sequence (O15197 32-1021): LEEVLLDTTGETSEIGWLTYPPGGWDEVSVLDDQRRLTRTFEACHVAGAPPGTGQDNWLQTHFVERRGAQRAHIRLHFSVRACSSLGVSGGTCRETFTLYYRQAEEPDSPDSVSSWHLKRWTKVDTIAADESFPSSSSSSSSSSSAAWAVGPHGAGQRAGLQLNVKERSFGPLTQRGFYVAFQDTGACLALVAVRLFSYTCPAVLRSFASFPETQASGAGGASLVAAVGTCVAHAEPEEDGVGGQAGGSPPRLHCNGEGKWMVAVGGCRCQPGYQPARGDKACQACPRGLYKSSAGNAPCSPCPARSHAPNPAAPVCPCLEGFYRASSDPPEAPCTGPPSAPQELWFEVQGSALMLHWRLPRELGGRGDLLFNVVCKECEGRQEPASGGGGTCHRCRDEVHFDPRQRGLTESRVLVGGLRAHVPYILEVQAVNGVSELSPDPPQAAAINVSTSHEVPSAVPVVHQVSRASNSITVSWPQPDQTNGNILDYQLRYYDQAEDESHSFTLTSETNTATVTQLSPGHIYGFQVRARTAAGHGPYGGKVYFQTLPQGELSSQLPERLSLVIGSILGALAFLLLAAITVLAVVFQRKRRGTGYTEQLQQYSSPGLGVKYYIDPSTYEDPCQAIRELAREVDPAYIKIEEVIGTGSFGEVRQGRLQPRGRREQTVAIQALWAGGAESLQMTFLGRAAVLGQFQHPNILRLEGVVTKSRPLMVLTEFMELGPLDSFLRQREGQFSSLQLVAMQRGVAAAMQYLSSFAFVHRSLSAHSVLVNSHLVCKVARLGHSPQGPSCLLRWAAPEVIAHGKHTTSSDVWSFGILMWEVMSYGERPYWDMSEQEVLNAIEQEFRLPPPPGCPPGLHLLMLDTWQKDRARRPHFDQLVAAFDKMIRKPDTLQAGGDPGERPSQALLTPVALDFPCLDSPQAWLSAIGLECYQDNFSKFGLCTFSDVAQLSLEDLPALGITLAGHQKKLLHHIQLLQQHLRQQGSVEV
T1 sequence (P07333 20-972): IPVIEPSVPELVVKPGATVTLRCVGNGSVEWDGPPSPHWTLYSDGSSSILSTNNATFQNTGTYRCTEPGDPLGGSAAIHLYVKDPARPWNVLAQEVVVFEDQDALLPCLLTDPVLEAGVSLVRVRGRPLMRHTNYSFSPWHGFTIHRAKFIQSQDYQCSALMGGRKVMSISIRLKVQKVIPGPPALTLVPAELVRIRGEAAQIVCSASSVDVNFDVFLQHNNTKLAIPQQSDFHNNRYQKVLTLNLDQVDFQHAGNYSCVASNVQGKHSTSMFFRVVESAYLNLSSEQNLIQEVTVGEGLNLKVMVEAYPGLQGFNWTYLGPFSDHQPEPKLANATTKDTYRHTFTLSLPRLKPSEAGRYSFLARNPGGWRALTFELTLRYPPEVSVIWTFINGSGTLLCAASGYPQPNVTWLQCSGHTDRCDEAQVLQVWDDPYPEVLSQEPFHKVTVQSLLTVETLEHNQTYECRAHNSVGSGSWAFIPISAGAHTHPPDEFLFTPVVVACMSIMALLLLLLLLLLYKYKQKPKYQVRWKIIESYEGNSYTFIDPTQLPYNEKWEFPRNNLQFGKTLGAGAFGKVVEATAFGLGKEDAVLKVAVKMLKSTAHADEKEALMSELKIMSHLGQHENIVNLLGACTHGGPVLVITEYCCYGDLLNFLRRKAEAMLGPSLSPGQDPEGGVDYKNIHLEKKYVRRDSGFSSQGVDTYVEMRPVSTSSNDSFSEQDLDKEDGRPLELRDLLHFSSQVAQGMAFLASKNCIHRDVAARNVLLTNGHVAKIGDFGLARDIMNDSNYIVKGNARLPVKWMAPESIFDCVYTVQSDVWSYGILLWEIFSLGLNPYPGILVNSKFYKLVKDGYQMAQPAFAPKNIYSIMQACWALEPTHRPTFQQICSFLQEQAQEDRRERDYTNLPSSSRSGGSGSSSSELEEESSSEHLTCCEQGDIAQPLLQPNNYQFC
T3 sequence (P35968 20-1356): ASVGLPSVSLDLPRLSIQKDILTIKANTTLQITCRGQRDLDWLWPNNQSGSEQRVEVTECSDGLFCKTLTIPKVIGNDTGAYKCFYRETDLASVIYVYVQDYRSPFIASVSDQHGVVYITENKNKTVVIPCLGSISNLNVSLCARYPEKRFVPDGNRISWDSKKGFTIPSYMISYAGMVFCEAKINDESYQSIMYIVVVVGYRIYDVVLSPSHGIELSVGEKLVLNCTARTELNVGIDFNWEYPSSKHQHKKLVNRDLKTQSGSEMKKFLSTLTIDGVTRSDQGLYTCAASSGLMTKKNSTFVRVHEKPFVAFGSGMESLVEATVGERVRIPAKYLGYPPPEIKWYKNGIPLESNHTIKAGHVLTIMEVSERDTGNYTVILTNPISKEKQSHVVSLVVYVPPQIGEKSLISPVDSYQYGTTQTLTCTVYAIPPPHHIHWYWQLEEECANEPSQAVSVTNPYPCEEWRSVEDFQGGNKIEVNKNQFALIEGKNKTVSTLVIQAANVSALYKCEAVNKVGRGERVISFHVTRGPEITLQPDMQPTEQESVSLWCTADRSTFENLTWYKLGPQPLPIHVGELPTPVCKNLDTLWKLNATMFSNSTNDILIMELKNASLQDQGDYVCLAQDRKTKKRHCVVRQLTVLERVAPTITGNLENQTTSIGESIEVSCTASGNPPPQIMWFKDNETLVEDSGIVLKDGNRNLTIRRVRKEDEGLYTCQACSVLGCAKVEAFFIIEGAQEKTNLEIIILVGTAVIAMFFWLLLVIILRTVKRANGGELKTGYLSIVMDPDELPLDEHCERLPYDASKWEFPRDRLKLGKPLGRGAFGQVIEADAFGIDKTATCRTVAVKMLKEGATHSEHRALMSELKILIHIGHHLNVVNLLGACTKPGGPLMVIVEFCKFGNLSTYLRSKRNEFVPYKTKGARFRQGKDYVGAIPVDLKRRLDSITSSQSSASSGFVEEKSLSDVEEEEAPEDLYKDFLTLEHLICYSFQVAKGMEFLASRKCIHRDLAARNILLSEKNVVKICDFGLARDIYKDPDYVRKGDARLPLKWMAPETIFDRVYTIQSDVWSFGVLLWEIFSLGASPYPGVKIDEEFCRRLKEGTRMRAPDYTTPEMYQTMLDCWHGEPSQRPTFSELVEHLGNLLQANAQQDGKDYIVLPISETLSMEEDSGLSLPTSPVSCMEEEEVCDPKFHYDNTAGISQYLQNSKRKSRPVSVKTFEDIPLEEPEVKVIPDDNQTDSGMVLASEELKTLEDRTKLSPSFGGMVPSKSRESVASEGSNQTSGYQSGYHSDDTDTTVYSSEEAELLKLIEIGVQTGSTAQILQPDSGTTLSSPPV
T2 sequence (Q9H2G2 whole entry): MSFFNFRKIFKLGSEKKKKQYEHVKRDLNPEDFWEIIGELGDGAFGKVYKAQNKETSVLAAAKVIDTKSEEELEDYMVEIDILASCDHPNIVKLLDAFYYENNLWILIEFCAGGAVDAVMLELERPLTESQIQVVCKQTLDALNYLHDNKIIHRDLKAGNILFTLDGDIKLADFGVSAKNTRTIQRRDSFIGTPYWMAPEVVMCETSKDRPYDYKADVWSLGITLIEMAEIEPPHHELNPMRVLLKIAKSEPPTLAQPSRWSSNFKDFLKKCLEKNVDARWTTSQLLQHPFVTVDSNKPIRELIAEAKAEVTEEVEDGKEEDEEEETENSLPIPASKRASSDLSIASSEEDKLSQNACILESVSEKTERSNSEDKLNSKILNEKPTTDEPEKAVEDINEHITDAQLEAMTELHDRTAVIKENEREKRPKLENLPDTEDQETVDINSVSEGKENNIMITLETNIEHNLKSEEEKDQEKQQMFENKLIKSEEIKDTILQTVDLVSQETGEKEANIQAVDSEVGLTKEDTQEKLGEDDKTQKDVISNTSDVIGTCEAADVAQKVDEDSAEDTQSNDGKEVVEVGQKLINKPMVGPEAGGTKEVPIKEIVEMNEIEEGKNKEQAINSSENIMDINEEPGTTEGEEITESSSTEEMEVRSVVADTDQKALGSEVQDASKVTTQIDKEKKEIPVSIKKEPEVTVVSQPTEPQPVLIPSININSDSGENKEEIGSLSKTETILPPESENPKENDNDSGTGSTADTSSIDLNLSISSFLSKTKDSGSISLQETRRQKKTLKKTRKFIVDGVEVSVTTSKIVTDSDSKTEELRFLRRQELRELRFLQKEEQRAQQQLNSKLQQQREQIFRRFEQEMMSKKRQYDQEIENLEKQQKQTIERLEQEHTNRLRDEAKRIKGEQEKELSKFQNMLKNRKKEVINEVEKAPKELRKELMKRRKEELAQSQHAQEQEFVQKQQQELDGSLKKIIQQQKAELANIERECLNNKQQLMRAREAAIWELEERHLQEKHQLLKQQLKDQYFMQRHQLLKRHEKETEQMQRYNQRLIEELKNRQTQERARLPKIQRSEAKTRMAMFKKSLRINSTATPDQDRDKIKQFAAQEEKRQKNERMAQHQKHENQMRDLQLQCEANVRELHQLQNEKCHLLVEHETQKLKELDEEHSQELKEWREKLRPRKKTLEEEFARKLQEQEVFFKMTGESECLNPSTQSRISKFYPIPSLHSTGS

CCc1cc(O)c(F)cc1-c1cc(F)c2c(-c3nc4c([nH]3)CCN(C(=O)[C@]35C[C@H]3CCN5)C4)n[nH]c2c1 [Compound 1, (1S,5R)-2-azabicyclo[3.1.0]hexan-1-yl(2-(6-(2-ethyl-5-fluoro-4-hydroxyphenyl)-4-fluoro-1H-indazol-3-yl)-6,7-dihydro-3H-imidazo[4,5-c]pyridin-5(4H)-yl)methanone]
inhibition at 1 µM (CSF1R): 98%
inhibition at 1 µM (SLK): 100%
CC15 [1]: > 10000 nM
pCC15 [1]: < 5
inhibition at 1 µM (VEGFR2): 47%
IC50 [2]: 501 nM
inhibition at 1 µM (EPHB6): 85%
inhibition at 1 µM (SRC): 65%
inhibition at 1 µM (PLK4): 39%
inhibition at 1 µM (CSNK1D): 25%
